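Method: 48-hour compound exposure of cells in 96-well plates, five concentrations, linear interpolation of endpoints. The concentration for 50% growth inhibition is given as GI50.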 The source made the active and inactive calls. No stated cut-off is given here; in the data, active = GI50 up to about 1.1 µM and inactive = higher.
What was measured:
Assay in all cases: growth of human tumour cells (NCI), 48 h
[1] = test system: UO-31
[2] = test system: NCI-H460
[3] = test system: OVCAR-8
[4] = test system: HOP-92
[5] = test system: NCI/ADR-RES
[6] = test system: SK-MEL-2
[7] = test system: SF-295
[8] = test system: CAKI-1
[9] = test system: DU-145
[10] = test system: T47D
[11] = test system: A498
[12] = test system: MCF7
[13] = test system: COLO 205
[14] = test system: K562
[15] = test system: UACC-62
[16] = test system: NCI-H226
[17] = test system: OVCAR-5
[18] = test system: TK-10
[19] = test system: SF-539
[20] = test system: SW-620
[21] = test system: NCI-H23
[22] = test system: UACC-257
[23] = test system: OVCAR-3
[24] = test system: SF-268
[25] = test system: Malme-3M
[26] = test system: SK-OV-3
[27] = test system: HOP-62
[28] = test system: M14
[29] = test system: ACHN
[30] = test system: SNB-75
[31] = test system: SK-MEL-28
[32] = test system: U-251
[33] = test system: SN12C
[34] = test system: 786-0
[35] = test system: A549
[36] = test system: OVCAR-4
[37] = test system: HCC 2998
[38] = test system: HCT-15
[39] = test system: NCI-H522
[40] = test system: KM12
[41] = test system: HCT-116
[42] = test system: PC-3
[43] = test system: IGROV-1
[44] = test system: SK-MEL-5
[45] = test system: MDA-MB-231
[46] = test system: HT-29
[47] = test system: MDA-N
[48] = test system: RPMI-8226
[49] = test system: BT-549
[50] = test system: Hs-578T
[51] = test system: SNB-19
[52] = test system: MDA-MB-435
[53] = test system: RXF 393
[54] = test system: HL-60
[55] = test system: LOX IMVI
[56] = test system: CCRF-CEM
[57] = test system: EKVX
[58] = test system: MOLT-4

## Fc1cccc(F)c1C(Nc1nncs1)Nc1nncs1
[1]
  GI50: > 100 µM (inactive)
[2]
  GI50: > 100 µM (inactive)
[3]
  GI50: > 100 µM (inactive)
[4]
  GI50: > 100 µM (inactive)
[5]
  GI50: > 100 µM (inactive)
[6]
  GI50: > 100 µM (inactive)
[7]
  GI50: > 100 µM (inactive)
[8]
  GI50: > 100 µM (inactive)
[9]
  GI50: > 100 µM (inactive)
[10]
  GI50: > 100 µM (inactive)
[11]
  GI50: > 100 µM (inactive)
[12]
  GI50: 97.7 µM (inactive)
[13]
  GI50: > 100 µM (inactive)
[14]
  GI50: > 100 µM (inactive)
[15]
  GI50: > 100 µM (inactive)
[16]
  GI50: > 100 µM (inactive)
[17]
  GI50: > 100 µM (inactive)
[18]
  GI50: > 100 µM (inactive)
[19]
  GI50: 49 µM (inactive)
[20]
  GI50: 86.7 µM (inactive)
[21]
  GI50: > 100 µM (inactive)
[22]
  GI50: > 100 µM (inactive)
[23]
  GI50: > 100 µM (inactive)
[24]
  GI50: > 100 µM (inactive)
[25]
  GI50: > 100 µM (inactive)
[26]
  GI50: > 100 µM (inactive)
[27]
  GI50: > 100 µM (inactive)
[28]
  GI50: 59.6 µM (inactive)
[29]
  GI50: > 100 µM (inactive)
[30]
  GI50: > 100 µM (inactive)
[31]
  GI50: > 100 µM (inactive)
[32]
  GI50: > 100 µM (inactive)
[33]
  GI50: > 100 µM (inactive)
[34]
  GI50: > 100 µM (inactive)
[35]
  GI50: > 100 µM (inactive)
[36]
  GI50: > 100 µM (inactive)
[37]
  GI50: > 100 µM (inactive)
[38]
  GI50: 91.2 µM
[39]
  GI50: > 100 µM (inactive)
[40]
  GI50: > 100 µM (inactive)
[41]
  GI50: 50.5 µM (inactive)
[42]
  GI50: > 100 µM (inactive)
[43]
  GI50: > 100 µM (inactive)
[44]
  GI50: > 100 µM (inactive)
[45]
  GI50: > 100 µM (inactive)
[46]
  GI50: 47.2 µM (inactive)
[47]
  GI50: 38 µM (inactive)
[48]
  GI50: > 100 µM (inactive)
[49]
  GI50: > 100 µM (inactive)
[50]
  GI50: > 100 µM (inactive)
[51]
  GI50: > 100 µM (inactive)
[52]
  GI50: 51.3 µM (inactive)
[53]
  GI50: > 100 µM (inactive)

## C[C@H](CCC1=NCCN1)[C@H]1CC[C@H]2[C@@H]3[C@H](O)C[C@@H]4C[C@H](O)CC[C@]4(C)[C@H]3CC[C@]12C
[1]
  GI50: 14.6 µM (inactive)
[2]
  GI50: 12 µM (inactive)
[3]
  GI50: 15.6 µM (inactive)
[4]
  GI50: 8.89 µM (inactive)
[5]
  GI50: 28.8 µM (inactive)
[6]
  GI50: 16.3 µM (inactive)
[7]
  GI50: 15.5 µM (inactive)
[54]
  GI50: > 10 µM (inactive)
[8]
  GI50: 24 µM (inactive)
[9]
  GI50: 14.3 µM (inactive)
[10]
  GI50: 14.8 µM (inactive)
[11]
  GI50: 13.3 µM (inactive)
[12]
  GI50: 15.2 µM (inactive)
[13]
  GI50: 8.57 µM (inactive)
[14]
  GI50: 6.3 µM (inactive)
[15]
  GI50: 11.4 µM (inactive)
[16]
  GI50: 15 µM (inactive)
[55]
  GI50: 10.3 µM (inactive)
[17]
  GI50: 14.5 µM (inactive)
[18]
  GI50: 13.8 µM (inactive)
[19]
  GI50: 12.9 µM (inactive)
[20]
  GI50: 15.6 µM (inactive)
[21]
  GI50: 14.3 µM (inactive)
[22]
  GI50: 15 µM (inactive)
[23]
  GI50: 13.7 µM (inactive)
[24]
  GI50: 13.2 µM (inactive)
[25]
  GI50: 15.6 µM (inactive)
[26]
  GI50: 19.1 µM (inactive)
[27]
  GI50: 16.1 µM (inactive)
[28]
  GI50: 15.3 µM (inactive)
[29]
  GI50: 16.4 µM (inactive)
[30]
  GI50: 10.6 µM (inactive)
[31]
  GI50: 14.2 µM (inactive)
[32]
  GI50: 12.8 µM (inactive)
[33]
  GI50: 21.1 µM (inactive)
[34]
  GI50: 14.6 µM (inactive)
[36]
  GI50: 14.9 µM (inactive)
[56]
  GI50: 12.7 µM (inactive)
[37]
  GI50: 15.2 µM (inactive)
[38]
  GI50: 16.5 µM
[39]
  GI50: 14.7 µM (inactive)
[40]
  GI50: 14.6 µM (inactive)
[57]
  GI50: 17.9 µM (inactive)
[41]
  GI50: 13.6 µM (inactive)
[42]
  GI50: 8.85 µM (inactive)
[43]
  GI50: 11.7 µM (inactive)
[44]
  GI50: 11.8 µM (inactive)
[45]
  GI50: 16.7 µM (inactive)
[46]
  GI50: 2.54 µM (inactive)
[47]
  GI50: 17.3 µM (inactive)
[58]
  GI50: 11.1 µM (inactive)
[48]
  GI50: 14.7 µM (inactive)
[49]
  GI50: 12.3 µM (inactive)
[50]
  GI50: 12.4 µM (inactive)
[51]
  GI50: 13.4 µM (inactive)
[52]
  GI50: 13.7 µM (inactive)
[53]
  GI50: 15.8 µM (inactive)

Reference: ChEMBL document CHEMBL1201862, “PubChem BioAssay data set” (2004)
